For 2 molecules, EC50 results are on record in patent US8362052B2, “Isoindolin-1-one derivative” (MSD K.K., priority 2009, dated 2013).

This assay has as its target T1, human GPR120 (Homo sapiens, UniProt Q5NUL3).
T1 construct: expressed in transfected cells
T1 sequence (Q5NUL3 1-361): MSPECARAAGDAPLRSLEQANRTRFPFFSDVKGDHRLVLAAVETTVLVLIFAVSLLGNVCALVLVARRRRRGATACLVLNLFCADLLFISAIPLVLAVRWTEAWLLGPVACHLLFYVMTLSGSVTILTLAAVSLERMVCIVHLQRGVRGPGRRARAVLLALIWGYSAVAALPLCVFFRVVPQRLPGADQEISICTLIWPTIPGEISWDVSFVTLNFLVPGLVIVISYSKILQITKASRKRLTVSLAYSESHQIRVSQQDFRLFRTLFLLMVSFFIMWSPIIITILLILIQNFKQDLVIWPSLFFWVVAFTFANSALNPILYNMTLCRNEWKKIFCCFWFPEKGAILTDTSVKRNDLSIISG
Put plainly: Measurement of intracellular calcium concentration (FLIPR), GPR120 agonist action. Format: cell-based. The note with it: human GPR120 expression CHO cells, Fluo-4 AM. The source says: Primers were synthesized in the domains on the opposite sides of the base sequences of the ORFs of the known GPCR and GPR120 in GenBank Accession NOs. NM 181745 (human) and NM 181748 (mouse), and the genes were cloned by RT-PCR. The base sequences of the primers used are described below. The restriction enzymes, BamHI and EcoRI, recognition sites were introduced for subcloning, respectively.
Using Lipofectamine 2000 (Invitrogen), cDNA of GPR120 receptor was transfected into CHO/NFAT-BLA cells, and drug-resistant cells were isolated to obtain GPR120 stable expression strains. The GPR120-expressed CHO cells were cultured in DMEM/F12 medium containing 10% fetal bovine serum, 100 units/ml penicillin, 0.1 mg/ml streptomycin sulfate, 250 μg/ml Zeocin, 500 μg/mL Geneticin and 15 mM HEPES.
On the day before the measurement day, 4 μM Fluo-4 AM (fluorescence calcium indicator reagent) was incubated to be introduced into the human GPR120 expression CHO cells plated at 20000 cells per well of a 96-well black plate (ViewPlate; Packard) in the presence of 2.5 mM probenecid in a CO2 incubator for 1 hour. […] Variations in the intracellular calcium concentration were measured by Fluorescence Imaging Plate Reader (FLIPR; Molecular Devices) to examine the agonist action, and EC50 values were calculated.
(Calcium assays in cells follow changes in intracellular calcium, usually with a dye or a luminescent sensor.)

The EC50 is the concentration giving half of the maximal effect.

On to `O=C1c2ccccc2CN1c1cc(F)cc(Oc2cccnc2)c1` [Example 1, 2-[3-fluoro-5-(pyridin-3-yloxy)phenyl]isoindolin-1-one], for which the EC50 was 850 nM.

For `O=S1(=O)c2ccccc2CN1c1cc(F)cc(Oc2cccnc2)c1` [Example 2, 2-[3-fluoro-5-(pyridin-3-yloxy)phenyl]-2,3-dihydro-1,2-benzisothiazol-1,1-dioxide], the EC50 turned out to be 180 nM.
